Data taken from DBAASP.
Converted amounts (≈) assume the structure as drawn.

What was measured:
Test in all cases: ≥ marks a high value that may be exact or a test limit, other limits are often not marked, values filed in µg/mL are converted to µM
[1] = test system: Stenotrophomonas maltophilia
[2] = test system: Salmonella enterica subsp. enterica serovar Paratyphi A
[3] = test system: Candida albicans 08030102
[4] = test system: Staphylococcus aureus 08032706
[5] = test system: Candida glabrata 08A802
[6] = test system: Enterococcus faecium 1299
[7] = test system: Candida albicans 08022710
[8] = test system: Pseudomonas aeruginosa ATCC 27853
[9] = test system: Pseudomonas aeruginosa 08031014
[10] = test system: Klebsiella oxytoca
[11] = test system: Bacillus cereus
[12] = test system: Escherichia coli
[13] = test system: Candida albicans 08030809
[14] = test system: Enterococcus faecalis 981
[15] = test system: Nocardia asteroides
[16] = test system: Shigella sp.
[17] = test system: Escherichia coli ATCC 25922
[18] = test system: Candida glabrata 09050201
[19] = test system: Staphylococcus epidermidis
[20] = test system: Candida albicans 08030401
[21] = test system: Staphylococcus aureus 08032810
[22] = test system: Staphylococcus aureus ATCC 25923
[23] = test system: Staphylococcus aureus 08032712
[24] = test system: Klebsiella pneumoniae 1400
[25] = test system: Staphylococcus aureus NCTC 12493
[26] = test system: Campylobacter jejuni
[27] = test system: Salmonella typhimurium SL1344
[28] = test system: Staphylococcus aureus ATCC 33591
[29] = test system: Escherichia coli K-12
[30] = test system: Pseudomonas aeruginosa Q14-0208
[31] = test system: Staphylococcus aureus RN4220
[32] = test system: Acinetobacter baumannii Q13-0717
[33] = test system: Pseudomonas aeruginosa PAO1
[34] = test system: Acinetobacter baumannii ATCC 19606
[35] = test system: Klebsiella pneumoniae ATCC 700603
[36] = test system: Klebsiella pneumoniae NCTC 13442
[37] = test system: Listeria monocytogenes NCTC 11994
[38] = test system: Enterococcus faecalis JH-2-2
[39] = test system: Campylobacter jejuni NCTC 11161
[40] = test system: Campylobacter jejuni NCTC 11351
[41] = test system: Pseudomonas aeruginosa Q12-0535
[42] = test system: Klebsiella pneumoniae Q14-0095
[43] = test system: Klebsiella pneumoniae Q14-0285
[44] = test system: Staphylococcus aureus USA 300
[45] = test system: Staphylococcus aureus ATCC 6538
[46] = test system: Pseudomonas aeruginosa Q14-0890
[47] = test system: Campylobacter jejuni ATCC 33292
[48] = test system: Staphylococcus aureus MRSA-15

CC[C@H](C)[C@H](NC(=O)[C@H](CCCN=C(N)N)NC(=O)[C@H](Cc1c[nH]c2ccccc12)NC(=O)CNC(=O)[C@H](Cc1ccc(O)cc1)NC(=O)[C@H](CCCN=C(N)N)NC(=O)[C@H](CCCN=C(N)N)NC(=O)[C@H](C)NC(=O)[C@H](Cc1ccccc1)NC(=O)[C@H](CCCN=C(N)N)NC(=O)CNC(=O)[C@H](C)NC(=O)CNC(=O)[C@H](CCCN=C(N)N)NC(=O)[C@@H](NC(=O)[C@H](Cc1ccccc1)NC(=O)[C@H](CCCN=C(N)N)NC(=O)[C@H](CCCN=C(N)N)NC(=O)[C@H](Cc1c[nH]c2ccccc12)NC(=O)[C@H](CCCN=C(N)N)NC(=O)[C@H](CO)NC(=O)[C@H](CCCN=C(N)N)NC(=O)[C@@H](N)[C@@H](C)O)[C@@H](C)CC)C(=O)N[C@@H](C)C(=O)N[C@@H](CC(C)C)C(=O)NCC(=O)N[C@@H](CC(C)C)C(=O)N[C@H](C(=O)NCC(=O)O)C(C)C [TRSRWRRFIRGAGRFARRYGWRIALGLVG] gave an MIC [1] of 5.37 µM (≈ 18.8 µg/mL), an MIC [2] of 10.7 µM (≈ 37.5 µg/mL) and an MIC [3] of 5.37 µM (≈ 18.8 µg/mL). It also gave an MIC [4] of 5.37 µM (≈ 18.8 µg/mL), an MIC [5] of 2.69 µM (≈ 9.38 µg/mL) and an MIC [6] of 5.37 µM (≈ 18.8 µg/mL). The MIC [7] was 5.37 µM (≈ 18.8 µg/mL), the MIC [8] was 5.37 µM (≈ 18.8 µg/mL) and the MIC [9] was 2.69 µM (≈ 9.38 µg/mL). For the same molecule, the MIC [10] was 5.37 µM (≈ 18.8 µg/mL), the MIC [11] was 2.69 µM (≈ 9.38 µg/mL) and the MIC [12] was 5.37 µM (≈ 18.8 µg/mL). It also gave an MIC [13] of 5.37 µM (≈ 18.8 µg/mL), an MIC [14] of 10.7 µM (≈ 37.5 µg/mL) and an MIC [15] of 2.69 µM (≈ 9.38 µg/mL). For the same molecule, the MIC [16] was 1.34 µM (≈ 4.69 µg/mL), the MIC [17] was 5.37 µM (≈ 18.8 µg/mL) and the MIC [18] was 5.37 µM (≈ 18.8 µg/mL). It also gave an MIC [19] of 5.37 µM (≈ 18.8 µg/mL), an MIC [20] of 2.69 µM (≈ 9.38 µg/mL) and an MIC [21] of 5.37 µM (≈ 18.8 µg/mL). The MIC [22] was 5.37 µM (≈ 18.8 µg/mL), the MIC [23] was 5.37 µM (≈ 18.8 µg/mL) and the MIC [24] was 7.49 µM (≈ 26.2 µg/mL).
For CC[C@H](C)[C@H](NC(=O)[C@H](CCCCN)NC(=O)[C@H](CO)NC(=O)[C@H](Cc1c[nH]c2ccccc12)NC(=O)[C@H](CCCN=C(N)N)NC(=O)[C@H](CC(N)=O)NC(=O)[C@H](CCCN=C(N)N)NC(=O)[C@H](CCCN=C(N)N)NC(=O)[C@@H]1CCCN1C(=O)[C@@H](N)CC(C)C)C(=O)N[C@@H](Cc1c[nH]c2ccccc12)C(=O)N[C@@H](CCCCN)C(=O)N[C@@H](CCCCN)C(=O)N[C@H](C(=O)N[C@H](C(=O)N[C@H](C(=O)N[C@H](C(=O)N[C@@H](Cc1ccccc1)C(=O)N[C@@H](CO)C(=O)O)C(C)C)[C@@H](C)O)C(C)C)C(C)C [LPRRNRWSKIWKKVVTVFS], the MIC [25] was 6.66 µM (≈ 16 µg/mL), the MIC [26] was 26.7 µM (≈ 64 µg/mL) and the MIC [27] was 13.3 µM (≈ 32 µg/mL). It also gave an MIC [28] of 6.66 µM (≈ 16 µg/mL), an MIC [29] of 13.3 µM (≈ 32 µg/mL) and an MIC [30] of 6.66 µM (≈ 16 µg/mL). It also gave an MIC [31] of 13.3 µM (≈ 32 µg/mL), an MIC [32] of 1.67 µM (≈ 4 µg/mL) and an MIC [33] of 13.3 µM (≈ 32 µg/mL). For the same molecule, the MIC [8] was 26.7 µM (≈ 64 µg/mL), the MIC [34] was 9.42 µM (≈ 22.6 µg/mL) and the MIC [35] was 6.66 µM (≈ 16 µg/mL). For the same molecule, the MIC [36] was 6.66 µM (≈ 16 µg/mL), the MIC [12] was 26.7 µM (≈ 64 µg/mL) and the MIC [37] was 13.3 µM (≈ 32 µg/mL). For the same molecule, the MIC [38] was 13.3 µM (≈ 32 µg/mL), the MIC [39] was 1.67 µM (≈ 4 µg/mL) and the MIC [40] was 26.7 µM (≈ 64 µg/mL). The MIC [41] was 26.7 µM (≈ 64 µg/mL), the MIC [42] was 13.3 µM (≈ 32 µg/mL) and the MIC [43] was 6.66 µM (≈ 16 µg/mL). It also gave an MIC [44] of 3.33 µM (≈ 8 µg/mL), an MIC [45] of 13.3 µM (≈ 32 µg/mL) and an MIC [46] of 13.3 µM (≈ 32 µg/mL). It also gave an MIC [47] of 1.67 µM (≈ 4 µg/mL) and an MIC [48] of 13.3 µM (≈ 32 µg/mL).
